Source: patent US6441030B1, “3-phenyl-pyrones” (Bayer Aktiengesellschaft, priority 1998, dated 2002)

Assays:
Type in all cases: in vivo
[1] = system: Aphis fabae; experiment: Critical concentration test/root-systemic action, Aphis fabae (Example G); settings: active compound concentration of 1.25 ppm in the soil; broad beans; populated after 7 days, evaluated after a further 7 days
Procedure: (§1) Critical Concentration Test/Root-systemic Action Test insect: Aphis fabae Solvent: 4 parts by weight of dimethylformamide Emulsifier: 1 part by weight of alkylaryl polyglycol ether To prepare a suitable preparation of active compound, 1 part by weight of active compound is mixed with the stated amount of solvent, the stated amount of emulsifier is added and the concentrate is diluted with water to the desired concentration. The preparation of active compound is mixed intimately with the soil. The concentration of the active compound in the preparation is virtually immaterial, only the amount by weight of active compound per volume unit of soil, which is stated in ppm (=mg/l), being decisive. The treated soil is filled into 250 ml pots and pre-germinated broad beans are planted in these. Thus, the active compound can be taken up by the plant roots from the soil and then transported into the leaves. To assess the root-systemic effect, the leaves are populated with the abovementioned test animals after 7 days. After a further 7 days, evaluation is carried out by counting or estimating the dead animals. The root-systemic action of the active compound is derived from the number of animals killed. It is 100% if all test animals have been killed and 0% when the number of test insects that are still alive is the same as for the untreated control.

[2] = system: larvae of the mustard beetle (Phaedon cochleariae); experiment: Phaedon larvae test (Example C); settings: active compound concentration of 0.1% in the preparation; cabbage leaves (Brassica oleracea) dipped
Procedure: Phaedon Larvae Test Solvent: 7 parts by weight of dimethylformamide Emulsifier: 1 part by weight of alkylaryl polyglycol ether […] Cabbage leaves (Brassica oleracea) are treated by being dipped into the preparation of active compound of the desired concentration and are populated with larvae of the mustard beetle (Phaedon cochleariae) while the leaves are still moist.

[3] = system: Myzus persicae; experiment: Critical concentration test/root-systemic action, Myzus persicae (Example H); settings: active compound concentration of 1.25 ppm in the soil; broad beans; populated after 7 days, evaluated after a further 7 days
Procedure: as §1, with “Myzus persicae” for “Aphis fabae”, “[…],” for “(=mg/l),”

Cc1cc(Cl)ccc1-c1c(O)c(C)c(-c2ccccn2)oc1=O [Example 1, 3-(2-methyl-4-chloro-phenyl)-4-hydroxy-5-methyl-6-(pyrid-2-yl)-pyrone]
100 per cent: efficacy (root-systemic action) [1] | efficacy (kill in %) [2] | efficacy (root-systemic action) [3]
